# What was measured:
# Set-up in all cases: species or system rat
# [1] = system: mucin 13, occludin, and E-cadherin; experiment: Immunoblots of epithelial barrier proteins in post-ischemic intestinal homogenates (segment 7); settings: ileum segment 7, two hour ex vivo ischemia
# Protocol: Immunoblotting—To determine whether selected epithelial barrier proteins were degraded during ischemia, pre- and post-ischemic intestinal tissue homogenates (segment 7) were analyzed for relative levels of mucin 13, occludin, and E-cadherin.
# Tissues were homogenized for immunoblot analysis in buffer (CelLytic, Sigma-Aldrich) with protease inhibitor cocktail (HALT, Thermo Scientific, 1:100 dilution) and centrifuged (1×10^4 g, 20 min). Protein concentration in supernatants was determined (BCA, ThermoScientific). To separate proteins by gel electrophoresis, 30 μg of protein/well were loaded in 8 or 12% resolving gels with 4% stacking gels and transferred to nitrocellulose membranes (Bio-Rad, Hercules, Calif.). Membranes were blocked for one hour with either 5% bovine serum albumin (BSA) or 5% nonfat milk in tris-buffered saline with 0.5% Tween-20 (TBS-T). Primary antibodies diluted in 1% BSA or 1% nonfat milk against mucin 13 (1:1000, extracellular domain, sc-66973 Santa Cruz Biotechnology, Santa Cruz, Calif.), E-cadherin (1:1000, intracellular domain, 33-4000, Invitrogen), occludin (1:1000, intracellular domain, 33-1500, Invitrogen), pancreatic trypsin (1:1000, sc-137077 Santa Cruz Biotechnology), or β-actin (1:1000, sc-130301, Santa Cruz Biotechnology) were incubated overnight at 4° C. After incubation, membranes were washed with TBS-T (3×, 10 min) before addition of goat anti-rabbit or rabbit anti-mouse secondary antibodies (Santa Cruz Biotechnology) diluted 1:1000 in TBS-T. Following secondary antibody incubation (60 min), the membranes were washed with TBS-T (3×) and developed.
# [2] = system: ischemic small intestine segments (jejunum to ileum); experiment: Ex vivo intestinal ischemia: transmural fluorescein transport across wall of flushed intestinal segments
# Source text: Intestinal Ischemia—Since intestinal properties are non-homogenous, the transmural permeability was investigated over the entire length of the jejunum and ileum. Due to physical constraints of the small intestine anatomy, it is not feasible to simultaneously analyze permeability from multiple segments in vivo. Therefore, an ex vivo approach similar to previously published studies was designed to measure permeability along the length of the small intestine.
# A midline incision was made to expose the intestine in anesthetized rats. The proximal end of the jejunum (approximately 5 cm distal from the ligament of Treitz) was cannulated with a female luer to barb tube connector (⅛″ inner diameter). The intestine was removed and placed in saline immediately before euthanasia. In order to focus the analysis on permeability of the intestinal wall during ischemia in the absence of luminal contents (including the digestive proteases or cytotoxic factors from food), the lumen of the intestine was flushed with 40 ml saline using pulsatile pressure. Visual examination confirmed all solid contents were removed. Next, the intestine was cut into eight equal length segments (˜8 cm) sequentially ordered from the proximal jejunum (position 1) to the distal ileum (position 8). Both ends of each segment were cannulated with Female Luer to Barb tube connectors (thus allowing entry and exit points from the intestinal lumen to be sealed completely), secured with 4-0 suture, and the exterior portion of one adaptor on each segment sealed with clay.
# To determine the transmural permeability of the intestine, all 8 segments from each animal were filled with a low molecular weight tracer as a sensitive measure of early barrier breakdown prior to the initiation of ischemia, fluorescein (332 Da M.W., 20 μg/ml from 5 mg/ml stock in ethanol; 0.308 osm/L; Sigma-Aldrich, St. Louis, Mo.) mixed with saline, glucose (100 mg/ml in saline; 0.550 moles/L; 0.863 osm/L, Sigma-Aldrich), the non-metabolizing glucose analog mannitol (100 mg/ml in saline; 0.550 moles/L; 0.863 osm/L), the serine protease inhibitor tranexamic acid (31 mg/ml in saline; 0.200 moles/L; 0.508 osm/L, Sigma-Aldrich), the MMP inhibitor doxycycline hyclate (1 mg/ml in saline; 1.955×10^−3 moles/L; 0.310 osm/L, Sigma-Aldrich), or the MMP inhibitor GM 6001 [38] (1 μg/ml in saline from 1 mg/ml stock in DMSO; 2.57×10^−6 moles/L; 0.308 osm/L, Millipore, Billerica, Md.). […]
# Sealed segments were rinsed in saline, individually placed in 15 ml conical tubes containing 6 ml saline, and incubated at 37° C. for 2 hours to simulate ischemic conditions. […] Plates were read in a plate reader (FilterMax F-5 Multi-mode, Molecular Devices, Sunnyvale, Calif.) for concentration of fluorescein (excitation 494/emission 521) to measure diffusion across the wall of the intestine.
# Permeability Analysis—To determine the fluorescein transport across the ischemic intestinal wall, the fluorescence at time 0 was subtracted from fluorescence values at later time points to correct for background, and fluorescence values were corrected to account for the volume reduction due to sampling during the experiment. The RFU measurements were converted to equivalent moles by using the linear relationship between concentration and fluorescein fluorescence (not shown, R^2=0.999). The transport of fluorescein across the wall (measured in moles, per time) was computed as the change in fluorescence over a 30 min interval divided by 30 min.
# [3] = system: intestinal villi; experiment: Morphological analysis of intestinal villi after ex vivo ischemia (Van Gieson/hematoxylin); settings: for intestinal villi structure: jejunum and ileum after 2 hrs ex vivo ischemia
# Protocol: After the two-hour ischemic incubation, intestinal pieces from segments 2 (jejunum) and 7 (ileum) were embedded in O.C.T. (Tissue Tek, Torrance, Calif.) and snap frozen in t-methyl butane in liquid nitrogen. Intestine samples from segments 2 and 7 (for protease analysis) and segment 7 (for immunoblots) were snap frozen and stored for subsequent homogenization. Morphological Analysis and TUNEL Labeling—Intestinal segments frozen in O.C.T. were cut into 5 μm sections. Sections were fixed using ice-cold methanol (8 min at −20° C.) and immediately washed four times in distilled water. Nuclei were stained by incubating sections in freshly mixed Weigert's Iron Hematoxylin A and B (Electron Microscopy Science, Hatfield, Pa.) (10 min) followed by rinsing thoroughly with water. Collagen fibers were labeled by incubating (2 min) in Van Gieson's Solution (Electron Microscopy Science). Prior to mounting, all slides were dehydrated (70, 95, 100% ethanol) and cleaned with xylene. After air-drying overnight, sections were mounted using Hard Set Mounting Media (Vector Laboratories, Burlingame, Calif.). Digital images were captured with a 20× objective (numerical aperture 0.5) and digitally montaged together after background subtraction. The separation of the mucosal epithelial layer was quantified for groups that had intact villi following the two hour ischemic period. Images were blinded and the distance between the mucosal epithelial layer and the lamina propria was measured over five lengths across a minimum of 6 villi.
Compound,E-cadherin levels (immunoblot) [1],mucin 13 levels (immunoblot) [1],occludin levels (immunoblot) [1],"fluorescein transport across the wall of the intestine ([2]; ex vivo, treatment in lumen, two-hour ischemic period)",intestinal villi structure [3],"separation between the lamina propria and the mucosal epithelial layer ([3]; jejunum, after 2 hrs ex vivo ischemia)","fluorescein transport rates, 30-60 min and 60-90 min periods ([2]; ex vivo ischemia, inhibitor in lumen without glucose, vs saline)"
"O=C[C@H](O)[C@@H](O)[C@H](O)[C@H](O)CO [Glucose, glucose]",decreased irrespective of the presence of glucose,preserved,preserved,drastically reduced,attenuated,still observed,
NC[C@H]1CC[C@H](C(=O)O)CC1 [tranexamic acid],,able to preserve mucin 13 levels,prevented a significant decrease in occludin,,did not prevent the villi destruction,,significantly decreased compared to the saline treated intestines

# Source: patent US20150297619A1, “METHODS AND COMPOSITIONS FOR PRESERVING THE MUCOSAL BARRIER” (priority 2014, published 2015)
